Assay results taken from ChEMBL document CHEMBL5653598, “In vivo antitumor activity of NVP-AEW541-A novel, potent, and selective inhibitor of the IGF-IR kinase” (Cancer Cell, 2004).
Calls of active or inactive are those of the source. The calls are words filed in the database; no cut-off is given here.

Columns and labels:
[1] = biological target: RAF proto-oncogene serine/threonine-protein kinase (Homo sapiens, UniProt P04049); experiment: Inhibition of GST-tagged c-Raf-1 (unknown origin) expressed in baculovirus infected in Sf21 cells at pH 7.5 measured after 30 mins in presence of gamma-[33P]-ATP by scintillation counter analysis
[2] = biological target: T1, Epidermal growth factor receptor (Homo sapiens, UniProt P00533); experiment: Inhibition of HER-1 in human A-431 cells assessed as inhibition of autophosphorylation of HER-1 incubated for 90 mins followed by EGF stimulation measured after 10 mins in presence of anti-EGFR Ab5 by ELISA analysis; assay type: cell-based
[3] = species on record: Mus musculus; conditions: Harlan, dose 50.0 mg/kg, route po, time 1.0 hrs
[4] = test system: NWT-21; experiment: Antitumor activity against mouse NWT-21 cells xenografted in Hsd athymic nude mouse assessed as inhibition of tumor growth at 50 mg/kg, po bid administered for 7 weeks relative to control; assay type: functional; conditions: NWT-21, 1176 h
[5] = Inhibition of starfish Cdk1/cycB expressed in baculovirus at pH 8.0 measured after 30 mins in presence of gamma-[33P]-ATP by scintillation counter analysis; set-up: species or system Asteroidea
[6] = biological target: T2, Mast/stem cell growth factor receptor Kit (Homo sapiens, UniProt P10721); experiment: Inhibition of c-Kit (unknown origin) in human GIST882 cells assessed as inhibition of autophosphorylation of c-Kit incubated for 90 mins in presence of anti-CD117 antibody by ELISA analysis; assay type: cell-based
[7] = biological target: Receptor tyrosine-protein kinase erbB-2 (Homo sapiens, UniProt P04626); experiment: Inhibition of GST tagged human HER-2 expressed in baculovirus at pH 7.5 measured after 15 mins in presence of gamma-[33P]-ATP by scintillation counter analysis
[8] = Toxicity in Hsd athymic nude mouse xenografted with NWT-21 cells assessed as body weight at 20 to 50 mg/kg, po bid administered for 7 weeks; assay type: organism-based; conditions: in vivo, 1176 h, dose 20-50 mg/kg
[9] = biological target: Hepatocyte growth factor receptor (Homo sapiens, UniProt P08581); experiment: Inhibition of GST tagged c-Met (unknown origin) expressed in baculovirus at pH 7.6 measured after 10 to 30 mins in presence of gamma-[33P]-ATP by scintillation counter analysis
[10] = test system: NWT-21; conditions: Mus musculus, dose 50.0 mg/kg, route po, time 1.0 hrs
[11] = biological target: Vascular endothelial growth factor receptor 3 (Homo sapiens, UniProt P35916); experiment: Inhibition of GST tagged human Flt-4 expressed in baculovirus at pH 7.6 measured after 15 mins in presence of gamma-[33P]-ATP by scintillation counter analysis
[12] = biological target: Vascular endothelial growth factor receptor 1 (Homo sapiens, UniProt P17948); experiment: Inhibition of GST tagged Flt-1 (unknown origin) expressed in baculovirus at pH 7.6 measured after 10 to 30 mins in presence of gamma-[33P]-ATP by scintillation counter analysis
[13] = biological target: Proto-oncogene tyrosine-protein kinase Src (Gallus gallus, UniProt P00523); experiment: Inhibition of GST tagged chicken c-Src expressed in baculovirus at pH 7.5 measured after 10 mins in presence of gamma-[33P]-ATP by scintillation counter analysis
[14] = test system: NWT-21; conditions: Mus musculus, dose 50.0 mg/kg, route po, time 1.0 hrs; remark: listed apart in the source
[15] = biological target: Platelet-derived growth factor receptor beta (Homo sapiens, UniProt P09619); experiment: Inhibition of GST tagged PDGFR-beta (unknown origin) expressed in baculovirus at pH 7.6 measured after 10 to 30 mins in presence of gamma-[33P]-ATP by scintillation counter analysis
[16] = test system: NWT-21; conditions: Mus musculus, dose 50.0 mg/kg, route po, time 1.0 hrs; remark: listed apart in the source
[17] = Inhibition of PDGFR (unknown origin) in mouse BALB/3T3 clone A31 cells assessed as inhibition of autophosphorylation of PDGFR incubated for 90 mins followed by PDGF BB stimulation measured after 10 mins in presence of anti-PDGF-R Receptor Type A/B antibody by ELISA analysis; assay type: cell-based; conditions: Homo sapiens
[18] = test system: NWT-21; experiment: Antitumor activity against mouse NWT-21 cells xenografted in Hsd athymic nude mouse assessed as inhibition of tumor growth at 20 mg/kg, po bid administered for 7 weeks relative to control; assay type: functional; conditions: NWT-21, po, 1176 h
[19] = species on record: Mus musculus; conditions: Harlan, dose 50.0 mg/kg, route po, time 1.0 hrs; remark: listed apart in the source
[20] = test system: NWT-21; conditions: Mus musculus, dose 50.0 mg/kg, route po, time 1.0 hrs; remark: listed apart in the source
[21] = biological target: Receptor tyrosine-protein kinase erbB-4 (Homo sapiens, UniProt Q15303); experiment: Inhibition of GST tagged human HER-4 expressed in baculovirus at pH 7.5 measured after 15 mins in presence of gamma-[33P]-ATP by scintillation counter analysis
[22] = biological target: T3, Receptor-type tyrosine-protein kinase FLT3 (Homo sapiens, UniProt P36888); experiment: Inhibition of GST tagged human Flt-3 expressed in baculovirus at pH 7.6 measured after 15 mins in presence of gamma-[33P]-ATP by scintillation counter analysis
T3 sequence (P36888 whole entry): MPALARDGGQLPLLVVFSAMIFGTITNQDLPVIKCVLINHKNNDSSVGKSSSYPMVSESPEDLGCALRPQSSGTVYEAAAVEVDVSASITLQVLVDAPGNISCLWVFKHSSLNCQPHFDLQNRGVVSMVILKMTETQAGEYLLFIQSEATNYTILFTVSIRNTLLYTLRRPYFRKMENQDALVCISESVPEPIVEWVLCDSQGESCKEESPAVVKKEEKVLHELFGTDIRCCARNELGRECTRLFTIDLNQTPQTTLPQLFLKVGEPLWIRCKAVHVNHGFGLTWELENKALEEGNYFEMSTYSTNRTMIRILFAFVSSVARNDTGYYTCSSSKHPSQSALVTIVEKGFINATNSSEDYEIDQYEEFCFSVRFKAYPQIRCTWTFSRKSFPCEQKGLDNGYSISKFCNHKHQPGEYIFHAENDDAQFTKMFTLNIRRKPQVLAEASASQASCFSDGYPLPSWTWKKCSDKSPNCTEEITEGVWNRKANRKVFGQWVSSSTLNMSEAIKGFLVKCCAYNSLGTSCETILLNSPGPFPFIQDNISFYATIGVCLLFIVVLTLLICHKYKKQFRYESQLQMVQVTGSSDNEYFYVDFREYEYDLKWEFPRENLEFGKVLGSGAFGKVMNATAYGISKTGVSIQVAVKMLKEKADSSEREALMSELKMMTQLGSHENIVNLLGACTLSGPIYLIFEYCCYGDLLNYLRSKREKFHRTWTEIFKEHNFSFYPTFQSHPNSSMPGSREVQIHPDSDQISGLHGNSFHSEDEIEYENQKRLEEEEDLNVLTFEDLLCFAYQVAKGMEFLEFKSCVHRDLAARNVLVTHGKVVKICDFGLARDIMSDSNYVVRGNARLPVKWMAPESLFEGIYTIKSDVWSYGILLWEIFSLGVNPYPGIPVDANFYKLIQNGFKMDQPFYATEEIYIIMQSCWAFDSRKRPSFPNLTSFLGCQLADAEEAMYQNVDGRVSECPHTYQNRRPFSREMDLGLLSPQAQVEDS

[23] = test system: NWT-21; experiment: Antitumor activity against mouse NWT-21 cells xenografted in Hsd athymic nude mouse assessed as plasma insulin level at 50 mg/kg, po bid measured after 10 day; assay type: functional
[24] = species on record: Mus musculus; conditions: Harlan, dose 50.0 mg/kg, route po, time 1.0 hrs; remark: listed apart in the source
[25] = biological target: T4, Insulin receptor (Homo sapiens, UniProt P06213); experiment: Inhibition of GST tagged human Ins-R expressed in baculovirus at pH 7.6 measured after 20 mins in presence of gamma-[33P]-ATP by scintillation counter analysis
[26] = Inhibition of rabbit PKA expressed in baculovirus at pH 7.0 measured after 20 mins in presence of gamma-[33P]-ATP by scintillation counter analysis; set-up: species or system Oryctolagus cuniculus
[27] = biological target: Angiopoietin-1 receptor (Homo sapiens, UniProt Q02763); experiment: Inhibition of GST tagged Tek (unknown origin) expressed in baculovirus at pH 7.6 measured after 10 to 30 mins in presence of gamma-[33P]-ATP by scintillation counter analysis
[28] = biological target: T4, Insulin receptor; experiment: Inhibition of Ins-R in A14 [Human melanoma] cells assessed as inhibition of autophosphorylation of Ins-R incubated for 90 mins followed by insulin stimulation measured after 10 mins by ELISA analysis; assay type: cell-based
[29] = biological target: T2, Mast/stem cell growth factor receptor Kit; experiment: Inhibition of GST tagged c-Kit (unknown origin) expressed in baculovirus at pH 7.6 measured after 10 to 30 mins in presence of gamma-[33P]-ATP by scintillation counter analysis
[30] = biological target: Tyrosine-protein kinase ABL1 (Homo sapiens, UniProt P00519); experiment: Inhibition of GST tagged c-Abl (unknown origin) expressed in baculovirus infected Sf9 cells at pH 7.5 measured after 10 mins in presence of gamma-[33P]-ATP by scintillation counter analysis
[31] = test system: NWT-21; experiment: Antitumor activity against mouse NWT-21 cells xenografted in Hsd athymic nude mouse assessed as plasma glucose level at 50 mg/kg, po bid measured after 10 days; assay type: functional; conditions: time 10 day
[32] = biological target: Fibroblast growth factor receptor 1 (Homo sapiens, UniProt P11362); experiment: Inhibition of GST tagged FGFR-1 (unknown origin) expressed in baculovirus at pH 7.6 measured after 10 to 30 mins in presence of gamma-[33P]-ATP by scintillation counter analysis
[33] = test system: NWT-21; experiment: Antitumor activity against mouse NWT-21 cells xenografted in Hsd athymic nude mouse assessed as inhibition of tumor growth at 30 mg/kg, po bid administered for 7 weeks relative to control; assay type: functional; conditions: NWT-21, 1176 h, read-out: GI
[34] = biological target: RAC-alpha serine/threonine-protein kinase (Homo sapiens, UniProt P31749); experiment: Inhibition of human PKB expressed in baculovirus at pH 7.2 measured after 30 mins in presence of gamma-[33P]-ATP by scintillation counter analysis
[35] = test system: NWT-21; experiment: Antitumor activity against mouse NWT-21 cells xenografted in Hsd athymic nude mouse assessed as plasma insulin level at 50 mg/kg, po bid measured after 1 day; assay type: functional
[36] = biological target: T1, Epidermal growth factor receptor; experiment: Inhibition of GST tagged human HER-1 expressed in baculovirus at pH 7.5 measured after 15 mins in presence of gamma-[33P]-ATP by scintillation counter analysis
[37] = biological target: Vascular endothelial growth factor receptor 2 (Homo sapiens, UniProt P35968); experiment: Inhibition of GST tagged KDR (unknown origin) expressed in baculovirus at pH 7.6 measured after 10 to 30 mins in presence of gamma-[33P]-ATP by scintillation counter analysis
[38] = test system: NWT-21; experiment: Antitumor activity against mouse NWT-21 cells xenografted in Hsd athymic nude mouse assessed as plasma glucose level at 50 mg/kg, po bid measured after 1 day; assay type: functional

T1 sequence (P00533 whole entry): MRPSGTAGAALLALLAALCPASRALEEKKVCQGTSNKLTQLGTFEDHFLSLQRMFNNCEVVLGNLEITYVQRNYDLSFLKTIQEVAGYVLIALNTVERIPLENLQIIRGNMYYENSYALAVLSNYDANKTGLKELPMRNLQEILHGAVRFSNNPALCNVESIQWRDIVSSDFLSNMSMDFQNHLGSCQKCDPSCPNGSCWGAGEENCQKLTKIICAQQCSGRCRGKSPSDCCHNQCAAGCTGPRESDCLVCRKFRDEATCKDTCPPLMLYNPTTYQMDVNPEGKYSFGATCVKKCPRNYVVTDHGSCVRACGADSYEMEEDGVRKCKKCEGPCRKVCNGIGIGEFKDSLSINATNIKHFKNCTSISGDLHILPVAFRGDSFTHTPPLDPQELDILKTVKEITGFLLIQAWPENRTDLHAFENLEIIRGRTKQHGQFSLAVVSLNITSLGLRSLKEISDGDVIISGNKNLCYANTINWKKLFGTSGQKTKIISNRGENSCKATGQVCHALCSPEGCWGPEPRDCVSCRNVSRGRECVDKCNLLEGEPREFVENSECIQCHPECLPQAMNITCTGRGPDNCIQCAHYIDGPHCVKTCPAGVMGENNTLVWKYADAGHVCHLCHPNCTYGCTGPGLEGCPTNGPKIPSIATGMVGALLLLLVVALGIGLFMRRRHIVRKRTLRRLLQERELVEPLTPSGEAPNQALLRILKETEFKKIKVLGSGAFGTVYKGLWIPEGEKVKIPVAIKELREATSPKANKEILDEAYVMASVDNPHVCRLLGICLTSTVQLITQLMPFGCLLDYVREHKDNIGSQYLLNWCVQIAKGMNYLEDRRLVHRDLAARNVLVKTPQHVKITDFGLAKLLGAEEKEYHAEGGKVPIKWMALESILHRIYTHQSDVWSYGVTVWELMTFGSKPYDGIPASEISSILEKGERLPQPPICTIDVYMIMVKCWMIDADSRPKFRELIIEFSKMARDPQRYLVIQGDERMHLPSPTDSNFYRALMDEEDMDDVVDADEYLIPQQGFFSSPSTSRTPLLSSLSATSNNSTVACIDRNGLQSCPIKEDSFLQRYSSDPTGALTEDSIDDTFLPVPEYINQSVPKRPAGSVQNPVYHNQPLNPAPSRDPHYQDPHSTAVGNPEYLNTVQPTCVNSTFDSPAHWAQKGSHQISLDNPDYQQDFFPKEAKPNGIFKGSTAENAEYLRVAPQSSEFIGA
T4 sequence (P06213 28-758 limits assumed): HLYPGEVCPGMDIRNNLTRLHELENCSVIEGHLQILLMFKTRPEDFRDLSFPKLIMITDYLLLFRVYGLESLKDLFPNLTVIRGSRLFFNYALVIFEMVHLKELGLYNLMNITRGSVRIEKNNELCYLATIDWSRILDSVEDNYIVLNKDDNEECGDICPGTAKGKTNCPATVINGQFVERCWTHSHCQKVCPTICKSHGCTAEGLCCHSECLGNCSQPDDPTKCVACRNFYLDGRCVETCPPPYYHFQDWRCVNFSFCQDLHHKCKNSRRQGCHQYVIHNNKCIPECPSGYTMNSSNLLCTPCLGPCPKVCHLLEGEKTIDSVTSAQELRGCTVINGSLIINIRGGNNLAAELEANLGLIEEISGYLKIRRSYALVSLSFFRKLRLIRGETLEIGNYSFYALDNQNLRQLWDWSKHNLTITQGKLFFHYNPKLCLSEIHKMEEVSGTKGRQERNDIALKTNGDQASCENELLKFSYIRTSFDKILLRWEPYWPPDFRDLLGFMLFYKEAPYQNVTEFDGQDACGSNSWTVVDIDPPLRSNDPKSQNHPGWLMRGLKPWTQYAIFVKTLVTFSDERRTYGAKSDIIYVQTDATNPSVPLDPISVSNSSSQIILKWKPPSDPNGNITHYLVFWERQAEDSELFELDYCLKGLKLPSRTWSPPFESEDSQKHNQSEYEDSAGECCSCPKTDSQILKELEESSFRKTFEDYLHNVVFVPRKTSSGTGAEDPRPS
T4 sequence (P06213 763-1382 limits assumed): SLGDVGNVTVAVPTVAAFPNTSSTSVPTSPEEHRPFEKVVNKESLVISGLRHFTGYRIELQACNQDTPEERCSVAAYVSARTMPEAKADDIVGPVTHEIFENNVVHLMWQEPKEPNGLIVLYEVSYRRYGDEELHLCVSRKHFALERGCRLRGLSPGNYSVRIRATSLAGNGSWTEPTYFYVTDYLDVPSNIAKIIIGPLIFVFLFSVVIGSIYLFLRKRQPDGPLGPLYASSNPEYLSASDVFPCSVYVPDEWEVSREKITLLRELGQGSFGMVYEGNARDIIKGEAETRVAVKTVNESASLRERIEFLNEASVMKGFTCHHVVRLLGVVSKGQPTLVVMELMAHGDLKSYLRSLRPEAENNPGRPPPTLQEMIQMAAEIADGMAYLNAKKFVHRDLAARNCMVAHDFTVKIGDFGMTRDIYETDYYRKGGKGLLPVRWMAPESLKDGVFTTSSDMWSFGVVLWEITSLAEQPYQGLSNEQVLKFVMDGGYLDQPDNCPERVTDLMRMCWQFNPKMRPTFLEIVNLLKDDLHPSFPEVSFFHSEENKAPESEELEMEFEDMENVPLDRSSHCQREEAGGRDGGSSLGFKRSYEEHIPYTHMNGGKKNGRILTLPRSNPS
T2 sequence (P10721 whole entry): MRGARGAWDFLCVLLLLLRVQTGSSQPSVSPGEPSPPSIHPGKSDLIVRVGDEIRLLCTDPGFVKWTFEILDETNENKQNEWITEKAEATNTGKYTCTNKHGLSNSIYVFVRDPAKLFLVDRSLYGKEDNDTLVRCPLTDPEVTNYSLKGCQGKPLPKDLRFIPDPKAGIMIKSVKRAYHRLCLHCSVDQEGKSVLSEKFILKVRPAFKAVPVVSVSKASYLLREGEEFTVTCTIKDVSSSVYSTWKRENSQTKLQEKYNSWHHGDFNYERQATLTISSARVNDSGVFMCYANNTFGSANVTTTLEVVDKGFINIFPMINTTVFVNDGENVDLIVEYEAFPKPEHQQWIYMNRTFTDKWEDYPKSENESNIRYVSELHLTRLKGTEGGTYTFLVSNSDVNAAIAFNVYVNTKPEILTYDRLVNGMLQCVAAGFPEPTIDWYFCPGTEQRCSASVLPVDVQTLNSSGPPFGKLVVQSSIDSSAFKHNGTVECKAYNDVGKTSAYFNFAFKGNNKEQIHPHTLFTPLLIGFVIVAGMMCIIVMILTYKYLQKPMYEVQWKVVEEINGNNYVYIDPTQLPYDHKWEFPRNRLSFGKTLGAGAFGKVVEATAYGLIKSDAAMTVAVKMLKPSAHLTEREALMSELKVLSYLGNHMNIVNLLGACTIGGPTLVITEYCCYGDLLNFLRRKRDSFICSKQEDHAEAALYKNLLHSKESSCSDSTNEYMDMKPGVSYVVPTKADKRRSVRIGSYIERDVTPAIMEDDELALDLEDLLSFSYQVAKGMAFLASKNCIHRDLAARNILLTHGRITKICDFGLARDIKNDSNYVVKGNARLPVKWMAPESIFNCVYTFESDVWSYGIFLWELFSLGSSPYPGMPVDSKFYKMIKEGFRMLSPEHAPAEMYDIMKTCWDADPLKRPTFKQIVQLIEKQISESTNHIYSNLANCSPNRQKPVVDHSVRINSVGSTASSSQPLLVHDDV
Sequence of Fibroblast growth factor receptor 1 (P11362 whole entry): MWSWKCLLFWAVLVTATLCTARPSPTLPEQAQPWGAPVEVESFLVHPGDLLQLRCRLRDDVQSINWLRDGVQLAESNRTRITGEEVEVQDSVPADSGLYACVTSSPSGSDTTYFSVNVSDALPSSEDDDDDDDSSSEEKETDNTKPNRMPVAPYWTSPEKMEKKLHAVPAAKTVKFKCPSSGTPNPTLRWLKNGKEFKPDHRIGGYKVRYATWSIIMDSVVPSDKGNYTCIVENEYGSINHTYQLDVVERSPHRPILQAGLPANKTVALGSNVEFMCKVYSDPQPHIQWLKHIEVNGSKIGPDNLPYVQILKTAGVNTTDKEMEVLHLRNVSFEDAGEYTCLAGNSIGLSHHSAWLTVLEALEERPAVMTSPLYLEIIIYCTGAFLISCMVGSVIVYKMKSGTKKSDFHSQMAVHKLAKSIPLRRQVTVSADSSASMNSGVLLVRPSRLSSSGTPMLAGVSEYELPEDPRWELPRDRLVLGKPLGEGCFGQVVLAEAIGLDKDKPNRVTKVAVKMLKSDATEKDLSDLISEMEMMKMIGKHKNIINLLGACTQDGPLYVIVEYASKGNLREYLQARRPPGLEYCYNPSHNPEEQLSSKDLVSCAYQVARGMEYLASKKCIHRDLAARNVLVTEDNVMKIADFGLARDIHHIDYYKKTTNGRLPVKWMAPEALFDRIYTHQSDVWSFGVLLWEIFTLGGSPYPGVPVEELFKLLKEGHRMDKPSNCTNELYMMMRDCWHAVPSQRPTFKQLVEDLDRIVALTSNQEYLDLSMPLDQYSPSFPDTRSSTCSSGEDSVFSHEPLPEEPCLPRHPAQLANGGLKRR
Sequence of RAC-alpha serine/threonine-protein kinase (P31749 whole entry): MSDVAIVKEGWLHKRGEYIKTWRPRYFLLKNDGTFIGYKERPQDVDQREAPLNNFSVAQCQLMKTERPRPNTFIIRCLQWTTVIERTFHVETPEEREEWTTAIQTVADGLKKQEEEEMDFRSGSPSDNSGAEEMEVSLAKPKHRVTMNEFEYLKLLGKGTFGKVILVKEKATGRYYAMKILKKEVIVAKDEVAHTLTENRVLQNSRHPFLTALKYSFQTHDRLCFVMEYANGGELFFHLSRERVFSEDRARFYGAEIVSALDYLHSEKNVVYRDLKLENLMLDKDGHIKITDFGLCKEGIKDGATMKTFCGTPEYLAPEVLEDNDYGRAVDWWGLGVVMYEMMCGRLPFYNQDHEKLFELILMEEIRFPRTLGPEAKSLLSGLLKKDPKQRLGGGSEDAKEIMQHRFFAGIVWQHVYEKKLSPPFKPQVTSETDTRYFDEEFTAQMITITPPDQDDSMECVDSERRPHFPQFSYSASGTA

IC50 [1]: > 10 µM
IC50 [2]: > 10 µM
IC50 [6]: > 5 µM
IC50 [7]: 4.1 µM
IC50 [9]: 3.8 µM
IC50 [11]: 2.4 µM
IC50 [12]: 0.6 µM
IC50 [13]: 2.4 µM
IC50 [15]: 2 µM
IC50 [17]: > 10 µM
IC50 [21]: 1.4 µM
IC50 [22]: 0.42 µM
IC50 [25]: 0.14 µM
IC50 [27]: 0.53 µM
IC50 [28]: 2.3 µM
IC50 [29]: 3.3 µM
IC50 [30]: > 10 µM
IC50 [32]: 4.1 µM
IC50 [34]: > 10 µM
IC50 [36]: 5.8 µM
IC50 [37]: 2.3 µM
Structure (SMILES): Nc1ncnc2c1c(-c1cccc(OCc3ccccc3)c1)cn2[C@H]1C[C@@H](CN2CCC2)C1
inhibition [3]: Active
T/C at 50 mg/kg [4]: 14%
IC50 [5]: > 10 µM
Activity [8]: Non-Toxic
inhibition [10]: Active
inhibition [14]: Active
inhibition [16]: Active
T/C at 20 mg/kg [18]: 32%
inhibition [19]: Active
inhibition [20]: Active
Activity [23]: 28.9 uU/ml
inhibition [24]: Active
IC50 [26]: > 10 µM
Activity [31]: 204.4 mg/dL
inhibition in vivo at 30 mg/kg [33]: 28%
Activity [35]: 14.4 uU/ml
Activity [38]: 197.4 mg/dL
